Type in all cases: in vivo
For assay [1], the system named is barnyardgrass (Echinochloa crus-galli). Briefly: Test B flooded paddy test, plant response rating 0-100. As to conditions: Flood, 250 g ai/ha; scale 0 to 100 (0 no effect, 100 complete control); 13 to 15 days. An excerpt:
(§1) At time of treatment, test pots were flooded to 3 cm above the soil surface, treated by application of test compounds directly to the paddy water, and then maintained at that water depth for the duration of the test. Treated plants and controls were maintained in a greenhouse for 13 to 15 days, after which time all species were compared to controls and visually evaluated. […] A dash (-) response means no test result.

In assay [2] the test system is ducksalad (Heteranthera limosa). The description is as above. Conditions: Flood, 250 g ai/ha; scale 0 to 100 (0 no effect, 100 complete control); 13 to 15 days.
From the text: as §1

The test system of assay [3] is sedge, umbrella (small-flower umbrella sedge, Cyperus difformis). Described as above. As to conditions: Flood, 250 g ai/ha; scale 0 to 100 (0 no effect, 100 complete control); 13 to 15 days.
From the text: as §1

Assay [4] deals with rice (Oryza sativa). The assay is described as above. Conditions: Flood, 250 g ai/ha; scale 0 to 100 (0 no effect, 100 complete control); 13 to 15 days.
From the text: as §1

For assay [5], the system named is pigweed (Amaranthus retroflexus). Briefly: Test A pre-/postemergence greenhouse herbicide test, visual injury rating 0-100. As to conditions: 1000 g ai/ha. The procedure, abridged:
(§2)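 Each species was treated both before emergence, via soil spray onto a loam–sand blend, and after emergence at the one- to two-leaf stage. Plants stayed in the greenhouse around 10 days before visual injury assessment.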

The test system of assay [6] is corn (Zea mays). The description is as above. Conditions: 1000 g ai/ha. The method in brief: as §2
The test system of assay [7] is velvetleaf (Abutilon theophrasti). The assay is described as above. As to conditions: 1000 g ai/ha. The procedure, abridged:
as §2

Assay [8] has as its system barnyardgrass (Echinochloa crus-galli). The assay is described as above. As to conditions: 1000 g ai/ha. The procedure, abridged: as §2
Assay [9] has as its system wheat (Triticum aestivum). The assay is described as above. As to conditions: 1000 g ai/ha. The procedure, abridged: as §2
Assay [10] has as its system morningglory (Ipomoea spp.). The assay is described as above. Conditions: 1000 g ai/ha. The procedure, abridged: as §2
Assay [11] concerns giant foxtail (Setaria faberii). Described as above. Conditions: 1000 g ai/ha. The procedure, abridged:
as §2

Assay [12] relates to large (Lg) crabgrass (Digitaria sanguinalis). Described as above. As to conditions: 1000 g ai/ha. The method in brief: as §2

Take `Fc1cc(Cl)cc(-c2n[nH]cc2C(=NN2CCCC2)c2ccccc2)c1` [Compound 42]: the “Plant response rating, Barnyardgrass” value in assay [1] came out at 0. In addition, the “Plant response rating, Ducksalad” value in assay [2] is given as 0. The “Plant response rating, Sedge, Umbrella” value in [3] is 0. Besides, the “Plant response rating, Rice” value in assay [4] turned out to be 0. Also, the “Plant response rating (0 to 100 scale), Pigweed” value (from here on “Plant response rating … Pigweed”) in [5] (Postemergence) and in [5] (Preemergence) was 100 each time. The “Plant response rating (0 to 100 scale), Corn” value (“Plant response rating … Corn” below) in assay [6] (Postemergence) and in [6] (Preemergence) was 0 throughout. Also, the “Plant response rating (0 to 100 scale), Velvetleaf” value (“Plant response rating … Velvetleaf” below) in assay [7] (Postemergence) and in [7] (Preemergence) was 100 throughout. Further, the “Plant response rating (0 to 100 scale), Barnyardgrass” value in assay [8] (Postemergence) and in [8] (Preemergence) was 0 in each case. For the same compound, the “Plant response rating (0 to 100 scale), Wheat” value (from here on “Plant response rating … Wheat”) in assay [9] (Postemergence) and in [9] (Preemergence) was 0 each time. In addition, the “Plant response rating (0 to 100 scale), Morningglory” value (from here on “Plant response rating … Morningglory”) in assay [10] (Postemergence) and in assay [10] (Preemergence) was 0 in each case. In addition, the “Plant response rating (0 to 100 scale), Foxtail, Giant” value (“Plant response rating … Giant” for short) in assay [11] (Postemergence) and in assay [11] (Preemergence) was 0 in each case. In addition, the “Plant response rating (0 to 100 scale), Crabgrass, Large” value (“Plant response rating … Large” below) in [12] (Postemergence) and in assay [12] (Preemergence) was 0 throughout.

In the case of `CCn1cc(C(=O)c2ccccc2)c(-c2cc(F)cc(Br)c2)n1` [Compound 10], the “Plant response rating, Barnyardgrass” value in assay [1] was 0. The “Plant response rating, Ducksalad” value in assay [2] amounted to 0. Also, the “Plant response rating, Sedge, Umbrella” value in [3] was determined as 0. In addition, the “Plant response rating, Rice” value in assay [4] is on record as 0. Also, the figures for the “Plant response rating … Pigweed” value in assay [5] (Postemergence) and in assay [5] (Preemergence) were 90 and 100, respectively. The “Plant response rating … Corn” value in [6] (Postemergence) and in assay [6] (Preemergence) was 0 each time. Also, the “Plant response rating … Velvetleaf” value in assay [7] (Postemergence) and in [7] (Preemergence) was 90 each time. Further, the “Plant response rating (0 to 100 scale), Barnyardgrass” value in assay [8] (Postemergence) and in assay [8] (Preemergence) was 0 in each case. Also, the “Plant response rating … Wheat” value in [9] (Postemergence) and in [9] (Preemergence) was 0 throughout. Also, the “Plant response rating … Morningglory” value in assay [10] (Postemergence) and in assay [10] (Preemergence) was 0 each time. Also, the “Plant response rating … Giant” value in assay [11] (Postemergence) and in assay [11] (Preemergence) was 0 each time. For the same compound, the “Plant response rating … Large” value in assay [12] (Postemergence) and in assay [12] (Preemergence) was 0 each time.

Turning to `N=C(c1ccccc1)c1c[nH]nc1-c1cc(F)cc(F)c1` [Compound 67], in [1], the “Plant response rating, Barnyardgrass” value is reported as 0. In [2], the “Plant response rating, Ducksalad” value is 0. The “Plant response rating, Sedge, Umbrella” value in [3] is 0. Moreover, the “Plant response rating, Rice” value in assay [4] is listed as 0. Also, the “Plant response rating … Pigweed” value in assay [5] (Postemergence) is on record as 80; in [5] (Preemergence) it was 100. Further, the “Plant response rating … Corn” value in [6] (Postemergence) and in assay [6] (Preemergence) was 0 in each case. Also, the “Plant response rating … Velvetleaf” value in assay [7] (Postemergence) was 90; in [7] (Preemergence) it was 100. Also, the “Plant response rating (0 to 100 scale), Barnyardgrass” value in [8] (Postemergence) and in assay [8] (Preemergence) was 0 each time. Further, the “Plant response rating … Wheat” value in [9] (Postemergence) and in assay [9] (Preemergence) was 0 throughout. Also, the “Plant response rating … Morningglory” value in assay [10] (Postemergence) and in assay [10] (Preemergence) was 0 each time. Moreover, the “Plant response rating … Giant” value in assay [11] (Postemergence) and in assay [11] (Preemergence) was 0 throughout. The “Plant response rating … Large” value in assay [12] (Postemergence) and in [12] (Preemergence) was 0 throughout.
